From US20250127906A1, “SMALL-MOLECULE DEGRADERS OF CDK8 AND CDK19” (University of South Carolina, priority 2021, published 2025)

Columns and labels:
[1] = tested on: pS727 STAT1 and total STAT1; experiment: pS727 STAT1 and total STAT1 in CT26 tumors in Balb/c mice; assay type: in vivo; details: oral gavage 20 mg/kg, 2, 8 or 24 hrs after dosing
Procedure: (§1) CT26 cells were injected subcutaneously into syngeneic Balb/c female mice and allowed to grow to 150˜200 mm^3. Tumor-bearing mice then received PROTACs IA7882 or IA7886 by oral gavage at 20 mg/kg in 30% propylene glycol/70% PEG-400 vehicle. Tumors were collected 2, 8 or 24 hrs after dosing and used to measure protein levels of CDK8, pS727 STAT1 and total STAT1 (by western blotting) and mRNA expression of CCL12, a gene that is inhibited by different CDK8/19 inhibitors in CT26 tumors in vivo (by QPCR).

[2] = tested on: CCL12; experiment: CCL12 mRNA expression in CT26 tumors in Balb/c mice (QPCR); assay type: in vivo; details: oral gavage 20 mg/kg, 2, 8 or 24 hrs after dosing
Procedure: as §1

[3] = Serum drug concentrations in CD-1 mice (LCMSMS); assay type: in vivo; details: female CD-1 mice, i.p. 15 mg/kg, 15 min and 1 hr
Procedure: For preliminary evaluation of the bioavailability of the PROTACs, IA7882 and IA7886 were administered to female CD-1 mice via intraperitoneal (i.p.) injection at the dose of 15 mg/kg. Drug concentrations were measured by LCMSMS analysis of serum samples collected at 15 min and 1 hr time point.

[4] = biological target: T1, CDK8 (Homo sapiens, UniProt P49336); experiment: CDK8 degradation in Loucy T-cell leukemia cells lacking Cyclin C; assay type: cell-based; design: endogenous in cells; host or cells: Loucy; details: Loucy cells (lacking CCNC), 24 hr treatment
Excerpt: (§2) This cell line, however, is unique in lacking Cyclin C (CCNC), the binding partner of CDK8/19. To test if the absence of CDK8-bound CCNC was responsible for the loss of IA7843 CDK8-degrading activity, we have tested the effect of IA7843 on a derivative of HEK-293cells with CRISPR-mediated knockout of CCNC.
Target sequence in this assay (P49336 whole entry): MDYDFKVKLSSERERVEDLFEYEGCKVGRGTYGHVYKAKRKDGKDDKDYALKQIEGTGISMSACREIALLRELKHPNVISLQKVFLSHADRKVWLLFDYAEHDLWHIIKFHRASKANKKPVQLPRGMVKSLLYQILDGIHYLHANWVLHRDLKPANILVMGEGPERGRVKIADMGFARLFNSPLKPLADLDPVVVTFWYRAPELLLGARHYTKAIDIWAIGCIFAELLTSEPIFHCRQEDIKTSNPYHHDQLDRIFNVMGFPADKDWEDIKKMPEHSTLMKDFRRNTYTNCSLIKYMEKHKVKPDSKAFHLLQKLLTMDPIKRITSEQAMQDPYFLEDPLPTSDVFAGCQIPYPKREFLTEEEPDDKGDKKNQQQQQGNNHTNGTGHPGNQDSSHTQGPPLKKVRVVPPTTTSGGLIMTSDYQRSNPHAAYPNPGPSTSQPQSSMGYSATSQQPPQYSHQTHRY

[5] = biological target: T2, CDK19 (Homo sapiens, UniProt Q9BWU1); experiment: CDK19 degradation in Loucy T-cell leukemia cells lacking Cyclin C; assay type: cell-based; design: endogenous in cells; host or cells: Loucy; details: Loucy cells (lacking CCNC), 24 hr treatment
Excerpt: as §2
Target sequence in this assay (Q9BWU1 whole entry): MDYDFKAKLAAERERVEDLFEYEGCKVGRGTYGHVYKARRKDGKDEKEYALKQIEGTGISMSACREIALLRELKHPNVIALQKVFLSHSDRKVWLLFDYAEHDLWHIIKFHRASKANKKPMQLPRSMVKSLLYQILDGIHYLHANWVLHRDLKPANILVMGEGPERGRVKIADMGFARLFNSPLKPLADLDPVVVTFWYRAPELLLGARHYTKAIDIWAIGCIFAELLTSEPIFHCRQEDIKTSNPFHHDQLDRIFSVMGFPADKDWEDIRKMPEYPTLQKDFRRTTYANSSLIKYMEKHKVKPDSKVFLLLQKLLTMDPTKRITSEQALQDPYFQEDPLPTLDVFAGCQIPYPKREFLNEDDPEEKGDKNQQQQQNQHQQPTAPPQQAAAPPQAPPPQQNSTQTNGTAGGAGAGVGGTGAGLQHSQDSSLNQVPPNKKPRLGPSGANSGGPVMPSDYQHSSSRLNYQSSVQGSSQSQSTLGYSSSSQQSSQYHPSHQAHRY

[6] = biological target: T1, CDK8; experiment: CDK8 degradation in HEK-293 cells (Western blot, normalized by GAPDH); assay type: cell-based; design: endogenous in cells; host or cells: HEK-293; details: HEK-293 cells
Summary of the method: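 HEK-293 cells were treated for 24 h with or without compound, at 1 μM or 0.3 μM for single-point testing. RIPA lysates were immunoblotted for CDK8, and densitometry gave levels normalized to GAPDH. DC50 is the concentration that reduces CDK8 to half its level in untreated cells.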
Target sequence in this assay (P49336 whole entry): as the sequence (P49336 whole entry) above
Target sequence in this assay (P24863 whole entry partner): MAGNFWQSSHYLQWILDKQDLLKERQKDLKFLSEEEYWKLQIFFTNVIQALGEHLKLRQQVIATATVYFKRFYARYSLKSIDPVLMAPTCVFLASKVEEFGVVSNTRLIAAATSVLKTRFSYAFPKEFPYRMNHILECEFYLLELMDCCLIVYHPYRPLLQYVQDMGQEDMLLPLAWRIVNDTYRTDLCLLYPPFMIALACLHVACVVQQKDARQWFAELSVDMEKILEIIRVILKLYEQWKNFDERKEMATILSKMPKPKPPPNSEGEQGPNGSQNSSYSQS

[7] = biological target: T3, CDK8 (Mus musculus, UniProt Q8R3L8); experiment: CDK8 protein level in CT26 tumors in Balb/c mice; assay type: in vivo; design: from tissue; host or cells: subcutaneous CT26 tumours in Balb/c female mice; details: oral gavage 20 mg/kg, 2, 8 or 24 hrs after dosing
T3 sequence (Q8R3L8 1-464): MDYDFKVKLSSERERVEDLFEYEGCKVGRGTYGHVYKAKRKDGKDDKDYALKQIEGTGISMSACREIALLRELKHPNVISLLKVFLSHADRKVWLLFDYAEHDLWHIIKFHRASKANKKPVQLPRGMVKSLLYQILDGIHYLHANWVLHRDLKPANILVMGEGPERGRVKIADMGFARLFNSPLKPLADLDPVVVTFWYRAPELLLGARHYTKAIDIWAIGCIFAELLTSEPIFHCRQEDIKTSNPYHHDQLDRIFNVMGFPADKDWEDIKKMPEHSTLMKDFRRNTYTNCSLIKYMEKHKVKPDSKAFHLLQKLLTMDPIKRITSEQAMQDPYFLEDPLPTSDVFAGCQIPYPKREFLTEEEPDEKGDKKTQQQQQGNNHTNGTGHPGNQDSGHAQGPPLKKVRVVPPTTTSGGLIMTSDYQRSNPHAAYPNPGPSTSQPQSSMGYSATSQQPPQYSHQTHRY
T3 sequence (Q62447 1-283 partner): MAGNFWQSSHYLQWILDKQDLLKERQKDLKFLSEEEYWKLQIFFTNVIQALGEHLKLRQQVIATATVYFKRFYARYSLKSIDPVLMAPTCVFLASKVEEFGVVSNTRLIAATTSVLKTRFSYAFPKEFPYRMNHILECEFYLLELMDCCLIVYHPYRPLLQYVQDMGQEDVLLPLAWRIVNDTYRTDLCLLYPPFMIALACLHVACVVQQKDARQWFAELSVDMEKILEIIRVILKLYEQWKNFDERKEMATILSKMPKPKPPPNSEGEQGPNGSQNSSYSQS
Procedure: as §1

[8] = biological target: T2, CDK19; experiment: CDK19 degradation in HEK-293 cells (Western blot); assay type: cell-based; design: PROTACs on CDK8 and CDK19 degradation in HEK-293cells; endogenous in cells; host or cells: HEK-293; details: concentration degrading CDK19 to half of level in untreated cells
Excerpt: Furthermore, the degradation of both CDK8 and CDK19 by the PROTACs is also seen to decrease the levels of their binding partner cyclin C (CCNC) (FIG. 2B, D, E), which is known to be protected from proteolytic degradation by its interaction with CDK8 (Barette et al., 2001).
FIGS. 2F and 2G show the effects of different concentrations of potent Senexin C- and BI-1347-based PROTACs on CDK8 and CDK19 degradation in HEK-293cells. Based on these assays, we calculated DC50 values that correspond to PROTAC concentrations inducing degradation of CDK8 and CDK19 to the half of protein level in untreated cells. The corresponding CDK8 DC50 values were 46 nM for IA7843, 6.6 nM for IA7882 and 2.8 nM for IA7886, and CDK19 DC50 values were 1 μM for IA7843, 25 nM for IA7882 and 10 nM for IA7886.
Target sequence in this assay (Q9BWU1 whole entry): as the sequence (Q9BWU1 whole entry) above
Target sequence in this assay (P24863 whole entry partner): as the sequence (P24863 whole entry partner) above

[9] = biological target: T1, CDK8; experiment: CDK8 degradation in HEK-293 cells with CRISPR knockout of CCNC; assay type: cell-based; design: a derivative of HEK-293cells with CRISPR-mediated knockout of CCNC; endogenous in cells; host or cells: HEK-293 with CRISPR knockout of CCNC; details: HEK-293 CCNC-knockout cells, 24 hr treatment
Excerpt: as §2
Target sequence in this assay (P49336 whole entry): as the sequence (P49336 whole entry) above

[10] = biological target: T2, CDK19; experiment: CDK19 degradation in HEK-293 cells with CRISPR knockout of CCNC; assay type: cell-based; design: a derivative of HEK-293cells with CRISPR-mediated knockout of CCNC; endogenous in cells; host or cells: HEK-293 with CRISPR knockout of CCNC; details: HEK-293 CCNC-knockout cells, 24 hr treatment
Excerpt: as §2
Target sequence in this assay (Q9BWU1 whole entry): as the sequence (Q9BWU1 whole entry) above

CDK8 degradation (in words) [4]: efficiently degraded CDK8 and CDK19
CDK19 degradation (in words) [5]: efficiently degraded CDK8 and CDK19
% CDK8 remaining ([6]; 24 hours, tested at 1 μM): 12%
DC50 ([6]; concentration degrading CDK8 to half of level in untreated cells): 6.6 nM
DC50 [8]: 25 nM
CDK8 degradation (in words) [9]: efficiently degraded CDK8 and CDK19
CDK19 degradation (in words) [10]: efficiently degraded CDK8 and CDK19
SMILES: O=C1CCC(N2C(=O)c3cccc(NCCOCCOCCOCCOCCC(=O)N4CCN(C(=O)Cn5cc(-c6ccc(-c7cncc8ccccc78)cc6)cn5)CC4)c3C2=O)C(=O)N1 (centres unmarked) [IA7882, 2-(2,6-dioxo-3-piperidyl)-4-[2-[2-[2-[2-[3-[4-[2-[4-[4-(4-isoquinolyl)phenyl]pyrazol-1-yl]acetyl]piperazin-1-yl]-3-oxo-propoxy]ethoxy]ethoxy]ethoxy]ethylamino]isoindoline-1,3-dione]
pS727 STAT1 and total STAT1 in tumors [1]: decreased in most of the tumors collected 2 hrs or 8 hrs after dosing
levels of CCL12 mRNA in tumors [2]: decreased in tumors treated with IA7882 or IA7886 2 hrs or 8 hrs (but not 24 hrs) after dosing
serum drug concentrations [3]: readily measurable and were higher for IA7882 than for IA7886
CDK8 levels in tumor extracts [7]: decreased in most of the tumor extracts collected 2 hrs or 8 hrs after dosing
